Test system: 695427-040-R-J1-PDC complex spheroid viability
Assay: Anticancer human tumor 695427-040-R-J1-PDC patient-derived colon adenocarcinoma cell line growth inhibition [RAS]
Details: for IC50: curve of first compound; for viability, T/C: stronger effect = lower value; active means viability on the fitted dose curve at most 10% of control; inactive means the rest
How it was run: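 Agents were tested in combination matrices in half-log decrements from a top concentration at or near clinical Cmax (10 microM if undetermined). Targets were multi-cell spheroids of tumour lines plus HUVEC and MSC stromal cells.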
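Further: viability read after seven days of drug exposure.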
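Wherever viability, T/C is given: 100% = DMSO vehicle control viability.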

CC(=O)OC12COC1CC(O)C1(C)C(=O)C(O)C3=C(C)C(OC(=O)C(O)C(NC(=O)OC(C)(C)C)c4ccccc4)CC(O)(C(OC(=O)c4ccccc4)C21)C3(C)C (configuration not stated) + C#Cc1c(F)ccc2cc(O)cc(-c3ncc4c(N5CC6CCC(C5)N6)nc(OCC56CCCN5CC(F)C6)nc4c3F)c12
inactive: viability, T/C (second compound 0.0316 µM, first compound 0.0316 µM) 67.3% | viability, T/C (second compound 0.0316 µM, first compound 0.1 µM) 67% | viability, T/C (second compound 0.0316 µM, first compound 0.316 µM) 69.9% | viability, T/C (second compound 0.0316 µM, first compound 1 µM) 80.3% | viability, T/C (second compound 0.0316 µM, first compound 3.16 µM) 85.8% | viability, T/C (second compound 0.0316 µM, first compound 10 µM) 90.5% | viability, T/C (second compound 0.1 µM, first compound 0.0316 µM) 66.9% | viability, T/C (second compound 0.1 µM, first compound 0.1 µM) 70.5% | viability, T/C (second compound 0.1 µM, first compound 0.316 µM) 66% | viability, T/C (second compound 0.1 µM, first compound 1 µM) 80% | viability, T/C (second compound 0.1 µM, first compound 3.16 µM) 89.1% | viability, T/C (second compound 0.1 µM, first compound 10 µM) 87.7% | viability, T/C (second compound 0.316 µM, first compound 0.0316 µM) 70.7% | viability, T/C (second compound 0.316 µM, first compound 0.1 µM) 68% | viability, T/C (second compound 0.316 µM, first compound 0.316 µM) 64.8% | viability, T/C (second compound 0.316 µM, first compound 1 µM) 72.6% | viability, T/C (second compound 0.316 µM, first compound 3.16 µM) 76.8% | viability, T/C (second compound 0.316 µM, first compound 10 µM) 81.8% | viability, T/C (second compound 1 µM, first compound 0.0316 µM) 59.5% | viability, T/C (second compound 1 µM, first compound 0.1 µM) 59.1% | viability, T/C (second compound 1 µM, first compound 0.316 µM) 59% | viability, T/C (second compound 1 µM, first compound 1 µM) 58.8% | viability, T/C (second compound 1 µM, first compound 3.16 µM) 67.3% | viability, T/C (second compound 1 µM, first compound 10 µM) 61% | viability, T/C (second compound 3.16 µM, first compound 0.0316 µM) 47.6% | viability, T/C (second compound 3.16 µM, first compound 0.1 µM) 44.2% | viability, T/C (second compound 3.16 µM, first compound 0.316 µM) 42.4% | viability, T/C (second compound 3.16 µM, first compound 1 µM) 50.4% | viability, T/C (second compound 3.16 µM, first compound 3.16 µM) 49.7% | viability, T/C (second compound 3.16 µM, first compound 10 µM) 45.3% | viability, T/C (second compound 10 µM, first compound 0.0316 µM) 32.3% | viability, T/C (second compound 10 µM, first compound 0.1 µM) 30.4% | viability, T/C (second compound 10 µM, first compound 0.316 µM) 25.2% | viability, T/C (second compound 10 µM, first compound 1 µM) 32% | viability, T/C (second compound 10 µM, first compound 3.16 µM) 29.6% | viability, T/C (second compound 10 µM, first compound 10 µM) 30.1%
> 10 µM: IC50 (second compound 0.0316 µM) | IC50 (second compound 0.1 µM) | IC50 (second compound 0.316 µM) | IC50 (second compound 1 µM)
< 0.0316 µM: IC50 (second compound 3.16 µM) | IC50 (second compound 10 µM)
